Laboratory results: EP0120304A2, “Substituted 4,10-dihydro-10-oxothieno benzoxepins and intermediates thereof, a process for their preparation and their use as medicaments” (HOECHST-ROUSSEL PHARMACEUTICALS INCORPORATED, priority 1983, dated 1984)
Read-outs that look alike come from different tables or passages of the source.

Columns and labels:
[1] = tested on: rat paw edema; test: carrageenin induced rat paw edema anti-inflammatory assay; type: in vivo; conditions: for ED50: Rattus norvegicus
[2] = tested on: 2-phenyl-1,4-benzoquinone-induced writhing; test: 2-phenyl-1,4-benzoquinone-induced writhing test (analgesia); type: in vivo, mice; conditions: for ED50: Mus musculus, po
Text: Compounds of the present invention are also useful as analgesic agents due to their ability to alleviate pain in mammals.

Q: How did the ED50 ([1]; 2 h, read-out: ED50 (mg/kg; 120 min.)) turn out when CC(CO)c1ccc2c(c1)C(=O)c1sccc1CO2 (racemic) [(±)-2-(4,10-Dihydro-10-oxothieno[3,2-c][1]benzoxepin-8-yl)propanol] was run?
A: The ED50 was 4.3 mg/kg.

Q: And the ED50 ([2]; Phenylquinone Writhing, read-out: ED50 (mg/kg; p.o.))?
A: The ED50 was 4.3 mg/kg.

Q: How did the “ED50 (mg/kg; 120 min.)” value [1] turn out when CC(=O)OCCc1ccc2c(c1)C(=O)c1sccc1CO2 [2-(4,10-Dihydro-10-oxothieno[3,2-c][1]benzoxepin-8-yl) ethyl acetate] was run?
A: The value was 11.4 mg/kg.

Q: O=C1c2cc(CCO)ccc2OCc2ccsc21 [(4,10-Dihydro-10-oxothieno[3,2-c][1]benzoxepin-8-yl) ethanol] was tested. Which “ED50 (mg/kg; 120 min.)” value [1] did it give?
A: Its value is 34.2 mg/kg.

Q: What about the “ED50 (mg/kg; p.o.)” value ([2]; p.o., Phenylquinone Writhing) of the same compound?
A: Its value is 19.7 mg/kg.

Q: How did the ED50 ([2]; orally, in a similar test, read-out: analgesic ED50) turn out when CC(C)Cc1ccc(C(C)C(=O)O)cc1 (stereo not shown) [ibuprofen, reference compound] was run?
A: Its ED50 is 10.4 mg/kg.

Q: COc1ccc2c(c1)c(CC(=O)O)c(C)n2C(=O)c1ccc(Cl)cc1 [indomethacin, reference compound] was tested. Which ED50 ([1]; po, read-out: anti-inflammatory ED50) did it give?
A: Its ED50 is 6 mg/kg.
